Entries after “also recorded” stand apart in the source; their conditions may differ. Read-outs that look alike come from different tables or passages of the source.
What was measured:
Nephelometric solubility = type: physicochemical; settings: DMEM + 10 % FCS, plasma or biological fluid, kinetic from dmso stock, maximal solubility in DMEM + 10 % FCS
Method: Solubility of Scaff10 derivatives was assessed nephelometrically. Scaff10 derivatives are moderately to poorly soluble in aqueous solutions due to their large number of aromatic rings having lipophilic character. Details about NMR, LC/MS and HPLC characterization steps are given in the Supplemental Information.
Suppl. Tab. 3: Overview of all 55 Scaff10 derivatives.Structures labeld with 1 were commercially obtained. MW = molecular weight. logP = calculated partition coefficient (using […]
Solubility was assessed nephelometrically in DMEM + 10 % FCS + Scaff10 derivative with either 0.3 or 2 % DMSO
final concentration; values in µM indicate maximal solubility of the compound under the respective condition. Yield in % indicates total yield of the last step of chemical synthesis
for each of Scaff10 derivatives. n.d. = not determined. n.i. = not indicated.
Scaff10 MW Number of exp. 2 % DMSO 0.3 % DMSO Scaff10 Yield
Structure log P Disruption of the PPI IC50 [µM]
derivative [g/mol] in dupl. [µM] [µM] class [%]

[1] = molecular target: T1, interaction of AKAP-Lbc/DHPH and RhoA (Homo sapiens, UniProt P61586); experiment: Homogeneous time-resolved fluorescence (HTRF) assay; type: binding
T1 construct: His6-AKAP-Lbc/DHPH (aa 1972–2342 of human AKAP-Lbc; NP_006729.4); made in house
Text: Fig 2 The small molecule Scaff10-8 inhibits the interaction of the DH domain of AKAP-Lbc and RhoA. (A). Principle of homogenous time-resolved fluorescence (HTRF) assay. Recombinant His-AKAP-Lbc/DHPH and GST-RhoA were generated. The tags are recognized by specific antibodies coupled to fluorescent dyes. When the two proteins interact, donor and acceptor dyes of the antibodies are in close proximity, energy transfer occurs upon excitation at 320 nm and a FRET signal is detected (665 nm). If a compound disrupts the interaction of the DHPH domain and RhoA, the proximity of the fluorescent moieties remains insufficient for a FRET signal to occur. […] As expected, excess untagged Rho decreases the binding between GST-RhoA and His-AKAP-Lbc/DHPH in a dose-dependent manner (lower left panel). […] (C) The influence of Scaff10-8 on the interaction of RhoA with the recombinant DH domain of AKAP-Lbc in the absence of the PH domain was determined by Alpha screen. […] The IC50 value is indicated.
The assay was essentially carried out as described. Scaff10 derivatives were added to His6-AKAP-Lbc/DHPH protein (250 nM final concentration) in HTRF buffer (PBS; 4 mM MgCl2; 0.05% Tween 20) in 384 well plates (Proxiplate-384 Plus, white, #6008289; Perkin Elmer LAS, Rodgau, Germany). Concentrations of Scaff10 derivatives ranged between 1.56–200 μM (2% DMSO final concentration); HTRF buffer with 2% DMSO served as a control. GST-RhoA (30 nM final concentration) in HTRF buffer and anti-GST antibody coupled to terbium (donor) and anti-His6-tag antibody coupled to XL665 (acceptor) were added to all wells (final antibody concentration: 2 μg/ml). After 1 h incubation at room temperature in the dark, FRET signals were recorded at 620 and 665 nm using a Genios Pro plate reader (Tecan Austria GmbH, Grödig, AT) and the ratios of […] to 620 nm were calculated. Wells containing no compound were set to 100% interaction of AKAP-Lbc/DHPH with RhoA, wells containing GST-RhoA only (without His6-AKAP-Lbc/DHPH) were set to 0% interaction. To exclude any interference of the tags and/or antibodies with Scaff10 derivatives, a His6-GST fusion protein replaced the two tagged proteins in a control assay. Wells containing His6-GST fusion protein were set to 100% interaction of His6-GST, wells containing no fusion protein were set to 0% interaction.

[2] = molecular target: T2, interaction of the DH domain of AKAP-Lbc and RhoA (Homo sapiens, UniProt P61586); experiment: Alpha screen assay; type: binding
T2 construct: The proteins used were N-terminally His6-tagged AKAP-Lbc-DH domain
Method: Assays were performed according to the manufacturer’s protocol (PerkinElmer) with minor modifications. All reagents were diluted in buffer containing 25 mM Hepes, pH 7.4, 100 mM NaCl, 0.1% bovine serum albumin, 0.05% CHAPS and 50 μM GDP and allowed to equilibrate to room temperature before addition to plates. […] The proteins used were N-terminally His6-tagged AKAP-Lbc-DH domain and C-terminally biotinylated RhoA. […] 8 μL of assay buffer containing donor and acceptor beads at 1:400 dilution was then added, the plate was incubated in the dark for 60 min and then read on a PheraStar FS plate reader (BMG Labtech, Germany) using an AlphaScreen^TM 680 excitation/570 emission filter set.
11.6 μL of a solution containing 100 nM RhoA and 200 nM AKAP13 in assay buffer was added and incubated with the compounds for 30 min at RT in foil-sealed plates. 8 μL of assay buffer containing donor and acceptor beads at 1:400 dilution was added. The plate was incubated in the dark for 60 min and then read on a PheraStar FS plate reader.

[3] = system: AQP2 localization in MCD4 cells; experiment: Immunofluorescence microscopy of AQP2 in MCD4 cells; type: cell-based, mouse; settings: 30 μM
[4] = 0.3 % DMSO final, read-out: Solubility 0.3 % DMSO
[5] = 2 % DMSO final, read-out: Solubility 2 % DMSO

T1 sequence (P61586 whole entry, the tested form may be a part): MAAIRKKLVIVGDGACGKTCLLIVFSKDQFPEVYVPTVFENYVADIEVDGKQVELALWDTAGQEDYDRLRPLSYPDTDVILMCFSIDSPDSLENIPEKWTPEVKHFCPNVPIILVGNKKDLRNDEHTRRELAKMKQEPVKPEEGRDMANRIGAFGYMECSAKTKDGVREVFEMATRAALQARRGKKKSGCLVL
T2 sequence (P61586 whole entry, the tested form may be a part): as above

inhibitory effect in Alpha screen ([2]; result in words) | IC50 ([1]; Table 1; HTRF; '-' = no IC50, inactive (n.d. is used separately in S3 Table); read-out: IC50 ± SEM) [µM] | SMILES | solubility (Nephelometric solubility; [4]) [µM] | solubility (Nephelometric solubility; [5]) [µM] | inhibitory effect on the AKAP-Lbc/DHPH-RhoA interaction ([1]; HTRF; result in words) | IC50 ([1]; read-out: IC50 ± SEM; Table 1; HTRF; '-' = no IC50, inactive (n.d. is used separately in S3 Table)) [µM] | localization of AQP2 in MCD4 cells [3] | IC50 [2] [µM] | IC50 ([1]; IC50 ± SEM, Table 1; HTRF; '-' = no IC50, inactive (n.d. is used separately in S3 Table)) [µM]
– | – | COc1ccc(-c2coc3cc4oc(=O)c(C)c(C)c4cc23)cc1 [Scaff10, 3-(4-Methoxyphenyl)-5,6-dimethyl-furo[3,2-g]chromen-7-one] | 75 | 85 | no inhibitory effect | > 200 | – | – | –
without inhibitory effects | > 200 | CCOC(=O)CCc1c(C)c2ccc(OCC(=O)c3ccc(OC)cc3)cc2oc1=O [Scaff10-7, Ethyl 3-[7-[2-(4-methoxyphenyl)-2-oxo-ethoxy]-4-methyl-2-oxo-chromen-3-yl]propanoate] | 40 | 70 | did not interfere; also recorded: without inhibitory effects | – | did not affect the location of AQP2 | – | –
– | – | COc1ccc(-c2coc3cc4oc(=O)c(CCC(=O)O)c(C)c4cc23)cc1 [Scaff10-8, 3-[3-(4-Methoxyphenyl)-5-methyl-7-oxo-furo[3,2-g]chromen-6-yl] propanoic acid] | 30 | 50 | – | – | induced cAMP-independently the translocation of AQP2 to the plasma membrane | 42 | 34.1 ± 1.7

From article PMC5786306, “An AKAP-Lbc-RhoA interaction inhibitor promotes the translocation of aquaporin-2 to the plasma membrane of renal collecting duct principal cells” (PLoS ONE, 2018)
